Patent US20190374627A1, “TARGET PEPTIDES FOR CANCER THERAPY AND DIAGNOSTICS” (priority 2016, published 2019)
Square brackets hold non-standard residues; d marks the D form. Ends that are not written are not given here. pS = N[C@@H](COP(=O)(O)O)C(=O)O

Experiments:
CD8^+ T cells (PBMCs) = test: Intracellular cytokine staining (ICS) of PBMCs after 7 days of stimulation with MHC-I-pP (healthy donors, HH patients); assay type: cell-based, human; details: for Reactive CD8^+ T cell population, HH2: HH patient HH2; for Reactive CD8^+ T cell population, HH3: HH patient HH3; for Reactive CD8^+ T cell population, HH6: HH patient HH6; for Reactive CD8^+ T cell population, HH8: HH patient HH8; for Reactive CD8^+ T cell population, HH10: HH patient HH10; for Reactive CD8^+ T cell population, HH11: HH patient HH11; for Reactive CD8^+ T cell population, HD1: Healthy donor HD1; for Reactive CD8^+ T cell population, HD2: Healthy donor HD2; for Reactive CD8^+ T cell population, HD3: Healthy donor HD3; for Reactive CD8^+ T cell population, HD4: Healthy donor HD4; for Reactive CD8^+ T cell population, HD5: Healthy donor HD5
Method in brief: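 PBMCs or liver lymphocytes from HLA-A*0201-positive healthy donors and hereditary hemochromatosis patients were stimulated for 7 days with HLA-A*0201-restricted phosphopeptides and no added cytokines. After exclusion of doublets and dead cells with a fixable viability dye, CD3^+CD8^+ cells were analysed by intracellular staining for IFN-γ and TNF-α, plus CD107a where needed.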

[1] = tested on: expanded TIL / IHL cultures; test: ICS for MHC-I-pP reactivity of liver-derived lymphocyte cultures after unspecific rapid expansion protocol (REP); assay type: cell-based, human
[2] = tested on: expanded lymphocyte cultures from deceased donor livers, cirrhotic livers and HCC; test: ICS for MHC-I-pP reactivity of liver-derived lymphocyte cultures after phosphopeptide-specific expansion; assay type: cell-based, human; details: for ppCTL response, Deceased Donor Liver Do 2 / ppCTL response, Deceased Donor Liver Do 3 / ppCTL response, Deceased Donor Liver Do 4 / ppCTL response, Deceased Donor Liver Do 6 / ppCTL response, End-stage Liver Cirrhosis IHL 11 / ppCTL response, End-stage Liver Cirrhosis IHL 12 / ppCTL response, End-stage Liver Cirrhosis IHL 13 / ppCTL response, End-stage Liver Cirrhosis IHL 15 / ppCTL response, HCC Distal HCC 1 / ppCTL response, HCC Tumor HCC 1 / ppCTL response, HCC Distal HCC 4 / ppCTL response, HCC Distal HCC 9 / ppCTL response, HCC Tumor HCC 9 / ppCTL response, HCC Distal HCC 12: pP-specifically expanded culture; for ppCTL response, HCC Distal HCC 1: HCC 1 Distal; for ppCTL response, HCC Tumor HCC 1: HCC 1 Tumor; for ppCTL response, HCC Distal HCC 4: HCC 4 Distal; for ppCTL response, HCC Distal HCC 9: HCC 9 Distal; for ppCTL response, HCC Tumor HCC 9: HCC 9 Tumor; for ppCTL response, HCC Distal HCC 12: HCC 12 Distal
[3] = tested on: unexpanded lymphocyte cultures (CD8^+ T cells); test: ICS for MHC-I-pP reactivity of lymphocyte cultures without expansion (Table 23, No Expansion)

Row | Substance | Reactive CD8^+ T cell population, HH2 (CD8^+ T cells (PBMCs)) | Reactive CD8^+ T cell population, HH3 (CD8^+ T cells (PBMCs)) | Reactive CD8^+ T cell population, HH6 (CD8^+ T cells (PBMCs)) | Reactive CD8^+ T cell population, HH8 (CD8^+ T cells (PBMCs)) | Reactive CD8^+ T cell population, HH10 (CD8^+ T cells (PBMCs)) | Reactive CD8^+ T cell population, HH11 (CD8^+ T cells (PBMCs)) | Reactive CD8^+ T cell population, HD1 (CD8^+ T cells (PBMCs)) | Reactive CD8^+ T cell population, HD2 (CD8^+ T cells (PBMCs)) | Reactive CD8^+ T cell population, HD3 (CD8^+ T cells (PBMCs)) | Reactive CD8^+ T cell population, HD4 (CD8^+ T cells (PBMCs)) | Reactive CD8^+ T cell population, HD5 (CD8^+ T cells (PBMCs)) | Reactive CD8^+ T cells, Non-specific Expansion, Do2 [1] | Reactive CD8^+ T cells, Non-specific Expansion, Do4 [1] | Reactive CD8^+ T cells, Non-specific Expansion, HH6 [1] | Reactive CD8^+ T cells, pP-specific Expansion, Do2 [2] | Reactive CD8^+ T cells, pP-specific Expansion, Do4 [2] | Reactive CD8^+ T cells, pP-specific Expansion, HH6 [2] | ppCTL response, Deceased Donor Liver Do 2 [2] | ppCTL response, Deceased Donor Liver Do 3 [2] | ppCTL response, Deceased Donor Liver Do 4 [2] | other results
1 | SMTRsPPRV: SRSF8 phosphopeptide, HLA-A*0201 (SMTR[pS]PPRV; listed as Homo sapiens) | 0 (<0.25% reactive CD8^-+ T cells) | 0 (<0.25% reactive CD8^-+ T cells) | 0 (<0.25% reactive CD8^-+ T cells) | 0 (<0.25% reactive CD8^-+ T cells) | 0 (<0.25% reactive CD8^-+ T cells) | 0 (<0.25% reactive CD8^-+ T cells) | 0 (<0.25% reactive CD8^-+ T cells) | 0 (<0.25% reactive CD8^-+ T cells) | 0 (<0.25% reactive CD8^-+ T cells) | 0 (<0.25% reactive CD8^-+ T cells) | 0 (<0.25% reactive CD8^-+ T cells) | 0 (<0.25% reactive CD8^-+ T cells) | 0 (<0.25% reactive CD8^-+ T cells) | 0 (<0.25% reactive CD8^-+ T cells) | 0 (<0.25% reactive CD8^-+ T cells) | 0 (<0.25% reactive CD8^-+ T cells) | 0 (<0.25% reactive CD8^-+ T cells) | 1 (0.25-2.5% reactive CD8-+ T cells) | 0 (<0.25% reactive CD8-+ T cells) | 0 (<0.25% reactive CD8-+ T cells) | ppCTL response, Deceased Donor Liver Do 6 [2]: 0 (<0.25% reactive CD8-+ T cells); ppCTL response, End-stage Liver Cirrhosis IHL 11 [2]: 0 (<0.25% reactive CD8-+ T cells); ppCTL response, End-stage Liver Cirrhosis IHL 12 [2]: 0 (<0.25% reactive CD8-+ T cells); ppCTL response, End-stage Liver Cirrhosis IHL 13 [2]: 0 (<0.25% reactive CD8-+ T cells); ppCTL response, End-stage Liver Cirrhosis IHL 15 [2]: 6 (>20% reactive CD8-+ T cells); ppCTL response, HCC Distal HCC 1 [2]: 0 (<0.25% reactive CD8-+ T cells); ppCTL response, HCC Tumor HCC 1 [2]: 0 (<0.25% reactive CD8-+ T cells); ppCTL response, HCC Distal HCC 4 [2]: 0 (<0.25% reactive CD8-+ T cells); ppCTL response, HCC Distal HCC 9 [2]: 0 (<0.25% reactive CD8-+ T cells); ppCTL response, HCC Tumor HCC 9 [2]: 0 (<0.25% reactive CD8-+ T cells); ppCTL response, HCC Distal HCC 12 [2]: 0 (<0.25% reactive CD8-+ T cells); Reactive CD8^+ T cells, No Expansion, Do4 [3]: 4 (7.5-10% reactive CD8^-+ T cells); Reactive CD8^+ T cells, No Expansion, HH6 [3]: 0 (<0.25% reactive CD8^-+ T cells)
2 | VMIGsPKKV: TNS3 phosphopeptide, HLA-A*0201 (VMIG[pS]PKKV; listed as Homo sapiens) | 0 (<0.25% reactive CD8^-+ T cells) | 0 (<0.25% reactive CD8^-+ T cells) | 0 (<0.25% reactive CD8^-+ T cells) | 0 (<0.25% reactive CD8^-+ T cells) | 1 (0.25-2.5% reactive CD8^-+ T cells) | 0 (<0.25% reactive CD8^-+ T cells) | 0 (<0.25% reactive CD8^-+ T cells) | 0 (<0.25% reactive CD8^-+ T cells) | 0 (<0.25% reactive CD8^-+ T cells) | 0 (<0.25% reactive CD8^-+ T cells) | 0 (<0.25% reactive CD8^-+ T cells) | 0 (<0.25% reactive CD8^-+ T cells) | 0 (<0.25% reactive CD8^-+ T cells) | 0 (<0.25% reactive CD8^-+ T cells) | 1 (0.25-2.5% reactive CD8^-+ T cells) | 0 (<0.25% reactive CD8^-+ T cells) | 0 (<0.25% reactive CD8^-+ T cells) | 2 (2.5-5.0% reactive CD8-+ T cells) | 0 (<0.25% reactive CD8-+ T cells) | 0 (<0.25% reactive CD8-+ T cells) | ppCTL response, Deceased Donor Liver Do 6 [2]: 0 (<0.25% reactive CD8-+ T cells); ppCTL response, End-stage Liver Cirrhosis IHL 11 [2]: 0 (<0.25% reactive CD8-+ T cells); ppCTL response, End-stage Liver Cirrhosis IHL 12 [2]: 0 (<0.25% reactive CD8-+ T cells); ppCTL response, End-stage Liver Cirrhosis IHL 13 [2]: 0 (<0.25% reactive CD8-+ T cells); ppCTL response, End-stage Liver Cirrhosis IHL 15 [2]: 0 (<0.25% reactive CD8-+ T cells); ppCTL response, HCC Distal HCC 1 [2]: 0 (<0.25% reactive CD8-+ T cells); ppCTL response, HCC Tumor HCC 1 [2]: 0 (<0.25% reactive CD8-+ T cells); ppCTL response, HCC Distal HCC 4 [2]: 0 (<0.25% reactive CD8-+ T cells); ppCTL response, HCC Distal HCC 9 [2]: 0 (<0.25% reactive CD8-+ T cells); ppCTL response, HCC Tumor HCC 9 [2]: 0 (<0.25% reactive CD8-+ T cells); ppCTL response, HCC Distal HCC 12 [2]: 0 (<0.25% reactive CD8-+ T cells); Reactive CD8^+ T cells, No Expansion, Do4 [3]: 0 (<0.25% reactive CD8^-+ T cells); Reactive CD8^+ T cells, No Expansion, HH6 [3]: 0 (<0.25% reactive CD8^-+ T cells)
